From PMC6332165, “Study of the Relationships between the Structure, Lipophilicity and Biological Activity of Some Thiazolyl-carbonyl-thiosemicarbazides and Thiazolyl-azoles” (Molecules, 2015)

Experiments:
[1] = Lipophilicity by reversed-phase thin-layer chromatography (RP-TLC), isopropanol-water mobile phase; format: physicochemical; conditions: RP-18F254s TLC, iso-propanol-water 45-65% (v/v); for RM0 (lipophilicity estimation parameter, intercept of RM = RM0 + bC): extrapolated to pure water
Experimental: Some of the parameters resulting from a RP-TLC may be associated to the lipophilic character of the analytes. The retention parameters (RM) are calculated by means of well-known Batte-Smith and Westall Equation (1): RM = log (1/RF − 1) (1)
Generally, the RM values determined by RP-TLC are linearly dependent on the concentration of the organic modifier (C) in the mobile phase Equation (2): RM = RM0 + bC (2) where b and RM0 are, respectively, the slope and the intercept of Equation (2). […] Additionally, it has been stated that not only the RM0, but also the slope, b, as a characteristic of the specific hydrophobic surface area of the compounds, can be used as an estimation of lipophilicity. The advantages of TLC methods consist in the small quantity of compounds needed for the determination, and the rapidity and simplicity of the method. Also, they are inexpensive, rapid and easy to perform.
Chromatography was performed on 20 × 20 cm RP-18F254s TLC precoated silica plates (Merck; Darmstadt, Germany). Solutions (1 mg/mL) of the tested compounds were prepared in iso-propanol, and 3 μL aliquots were spotted in duplicate on the plates by hand, 10 mm from the bottom edge and 20 mm apart. The mobile phases were composed of the iso-propanol-water binary mixtures, with a varying content of organic modifier between 45% and 65% (v/v) in 5% increments, as the study compounds differed considerably in their retention. Chromatography was performed in a normal developing chamber at room temperature, the developing distance being 10 cm. The chromatography chamber was saturated with the mobile phase for 30 min before use. After the development (30–60 min), the plates were air dried at room temperature and examined under a UV lamp (λ = 254 nm), and the RF (retardation factor) values were measured manually by a digital caliper. The experiments were performed in triplicate.

[2] = tested on: turpentine oil-induced inflammation; parameters: method as in PMID 23504664; Leukocytes (L, leukocytes count):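 lower leukocyte count means stronger anti-inflammatory effect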; conditions: cited from earlier work; for Leukocytes (L, leukocytes count) / PMN (polymorphonuclear leukocytes, differential leucocyte count): mean ± SD
phagocytes = tested on: phagocytes; parameters: method as in PMID 23504664; conditions: turpentine oil-induced inflammation, mean ± SD; cited from earlier work
[3] = tested on: nitric oxide (NO) synthesis; parameters: method as in PMID 23504664; unit not given here; conditions: turpentine oil-induced inflammation, mean ± SD; cited from earlier work
oxidative stress = tested on: oxidative stress; parameters: method as in PMID 23504664; conditions: turpentine oil-induced inflammation, mean ± SD; cited from earlier work

Structure (SMILES) | b (slope of RM = RM0 + bC, specific hydrophobic surface area) [1] | RM0 (lipophilicity estimation parameter, intercept of RM = RM0 + bC) [1] | Leukocytes (L, leukocytes count) [2] | PMN (polymorphonuclear leukocytes, differential leucocyte count) [2] [%] | PA (phagocytic activity) (phagocytes) | PI (phagocytosis index) (phagocytes) [%] | NO (nitric oxide synthesis) [3] | OSI (oxidative stress index) (oxidative stress) | TAR (total antioxidant response) (oxidative stress) | TOS (total oxidative status) (oxidative stress) | anti-inflammatory and antioxidant effects (in words) ([2]; overall ranking within the series)
C=CCn1c(S)nnc1-c1sc(-c2ccc(C)cc2)nc1C [Th-16] | −2.962 | 1.783 | 9225 ± 333 | 77.4 ± 1.9 | 27 ± 1.1 | 21.2 ± 1.0 | 63.091 ± 5.1 | 6.04 ± 4.1 | 1.103 ± 0.009 | 66.681 ± 9.1 | 
C=CCn1c(S)nnc1-c1sc(-c2ccc(Br)cc2)nc1C [Th-17] | −4.737 | 2.808 | 10,147.5 ± 528 | 75.4 ± 5.2 | 19.5 ± 0.9 | 15 ± 3.5 | 60.479 ± 11.8 | 6.38 ± 5.2 | 1.093 ± 0.003 | 69.962 ± 5.2 | 
Cc1nc(-c2ccccc2)sc1-c1nnc(S)o1 [Th-18] | −1.840 | 0.540 | 4575 ± 805 | 63.7 ± 2.4 | 56 ± 8.6 | 17 ± 1.9 | 43.23 ± 3.9 | 6.98 ± 4.1 | 1.118 ± 0.006 | 78.089 ± 14.1 | 
Cc1ccc(-c2nc(C)c(-c3nnc(S)o3)s2)cc1 [Th-19] | −1.134 | 0.286 | 7443.75 ± 1172 | 72.8 ± 5.0 | 13.5 ± 2.78 | 20 ± 1.5 | 45.198 ± 2.2 | 7.13 ± 5.9 | 1.119 ± 0.009 | 79.849 ± 12 | 
Cc1nc(-c2ccc(Br)cc2)sc1-c1nnc(S)o1 [Th-20] | −1.283 | 0.393 | 4837.5 ± 1305 | 59.2 ± 5.6 | 20 ± 1.5 | 16 ± 3.0 | 43.288 ± 5.0 | 7.32 ± 3.2 | 1.106 ± 0.003 | 81.022 ± 13.2 | 
Cc1nc(-c2ccccc2)sc1-c1nnc(S)s1 [Th-21] | −1.286 | 0.620 | 3000 ± 241 | 52.6 ± 2.1 | 23 ± 1.9 | 14.5 ± 4.6 | 43.737 ± 6.2 | 6.03 ± 4.5 | 1.114 ± 0.007 | 67.137 ± 10.6 | best anti-inflammatory and antioxidant effects
Cc1ccc(-c2nc(C)c(-c3nnc(S)s3)s2)cc1 [Th-22] | −1.227 | 0.701 | 5812.5 ± 399 | 66.4 ± 0.8 | 23.5 ± 0.9 | 35 ± 8.2 | 52.08 ± 8.1 | 5.13 ± 4.9 | 1.105 ± 0.001 | 56.694 ± 7.9 | 
